Here are results for 22 molecules from ChEMBL document CHEMBL5385849, “Discovery of 1-hydroxy-2-methylquinolin-4(1H)-one derivatives as new cytochrome bd oxidase inhibitors for tuberculosis therapy” (Eur J Med Chem, 2023).

For test [1], the system named is Mycolicibacterium smegmatis. The experiment in a line: Antimycobacterial activity against wild type Mycobacterium smegmatis MC2155 assessed as reduction in bacterial growth incubated for 24 hrs by resazurin dye based analysis. The format is functional.
In test [2] the test system is Mycolicibacterium smegmatis. Briefly: Antimycobacterial activity against Mycobacterium smegmatis harboring deltaqcrCAB mutant assessed as reduction in bacterial growth incubated for 24 hrs by resazurin dye based analysis. Format: functional. In general terms: Resazurin is reduced to fluorescent resorufin, in cell work by metabolically active cells.
Test [3] is described as follows: Binding affinity to C-terminal his-tagged Mycobacterium tuberculosis Cytochrome bd oxidase assessed as dissociation constant incubated for 5 to 10 mins by MST assay.
Test [4] relates to Mycolicibacterium smegmatis. Briefly: Antimycobacterial activity against Mycobacterium smegmatis harboring deltaqcrCAB mutant assessed as reduction in bacterial growth incubated for 2 days by resazurin dye based analysis. Format: functional. Particulars: 48 h, time 2 day.
The subject of test [5] is Mycolicibacterium smegmatis. Briefly: Inhibition of C-terminal his-tagged wild type Mycobacterium smegmatis MC2155 cytochrome bd oxidase assessed as reduction in oxygen consumption at 25 uM measured upto 4 days by Methylene blue dye based assay. As to conditions: time <= 4.0 day.
In test [6] the test system is Mycolicibacterium smegmatis. The experiment in a line: Inhibition of C-terminal his-tagged wild type Mycobacterium smegmatis MC2155 cytochrome bd oxidase assessed as reduction in oxygen consumption at 5 uM measured upto 4 days by Methylene blue dye based assay. As to conditions: time <= 4.0 day.
The subject of test [7] is Mycolicibacterium smegmatis. Briefly: Inhibition of C-terminal his-tagged wild type Mycobacterium smegmatis MC2155 cytochrome bd oxidase assessed as reduction in oxygen consumption at 5 uM measured upto 4 days in presence of Aurachin D by Methylene blue dye based assay. Particulars: time <= 4.0 day.
Test [8] has as its system Mycolicibacterium smegmatis. The experiment in a line: Inhibition of C-terminal his-tagged wild type Mycobacterium smegmatis inverted-membrane vesicle cytochrome bd oxidase assessed as reduction in oxygen consumption rate at 10 uM measured upto 4 days by Methylene blue dye based assay. Particulars: time <= 4.0 day. The format is cell membranes.
The subject of test [9] is Mycolicibacterium smegmatis. The experiment in a line: Inhibition of C-terminal his-tagged Mycobacterium smegmatis harboring deltaqcrCAB mutant inverted-membrane vesicle cytochrome bd oxidase assessed as reduction in oxygen consumption rate at 10 uM measured upto 4 days by Methylene blue dye based assay. The format is cell membranes. As to conditions: time <= 4.0 day.
The subject of test [10] is Mycolicibacterium smegmatis. The experiment in a line: Inhibition of C-terminal his-tagged Mycobacterium smegmatis harboring […] mutant inverted-membrane vesicle cytochrome bd oxidase assessed as reduction in oxygen consumption rate at 10 uM measured upto 4 days by Methylene blue dye based assay. Particulars: time <= 4.0 day. The format is cell membranes.
In test [11] the test system is Mycolicibacterium smegmatis. The experiment in a line: Inhibition of C-terminal his-tagged wild type Mycobacterium smegmatis MC2155 cytochrome bd oxidase assessed as reduction in oxygen consumption at 25 uM measured upto 4 days in presence of 6-chloro-2-ethyl-N-(4-(4-(4-(trifluoromethoxy)phenyl)piperidin-1-yl)benzyl)imidazo[1,2-a]pyridine-3-carboxamide by Methylene blue dye based assay. As to conditions: time <= 4.0 day.

≈ marks a conversion by molar mass, not a printed value. Calls of active or inactive are those of the source. The rule behind the calls is not given here.

Take `Cc1c(Cc2ccc(Br)cc2)c(=O)c2ccccc2n1O`: the MIC in [1] is over 400 µM; in test [2], 6.25 µM (≈ 2.15 µg/mL).
As for `Cc1c(Cc2ccccc2F)c(=O)c2ccccc2n1O`, the MIC in [1] was over 400 µM; in [2] it was 50 µM (≈ 14.2 µg/mL).
For the molecule `Cc1c(Cc2ccc(N3CCN(c4ccc(OC(F)(F)F)cc4)CC3)cc2)c(=O)c2ccccc2n1O`, the MIC was over 400 µM in test [1] and 100 µM (≈ 51 µg/mL) in test [2].
With `Cc1c(Cc2ccccc2C(F)(F)F)c(=O)c2ccccc2n1O`, the minimal inhibitory concentration (MIC) in [1] was over 400 µM; in test [2], 50 µM (≈ 16.7 µg/mL).
As for `Cc1c(Cc2ccccc2OC(F)(F)F)c(=O)c2ccccc2n1O`, the Kd in test [3] is 165 µM. Besides, the minimal inhibitory concentration (MIC) is over 400 µM in [1], 6.25 µM (≈ 2.18 µg/mL) in test [4] and 3.1 µM (≈ 1.08 µg/mL) in test [2].
Consider `CC(C)=CCC/C(C)=C/CC/C(C)=C/Cc1c(C)[nH]c2ccccc2c1=O` [AURACHIN D], for which the inhibition entry in [5] is “inactive”. The minimum inhibitory concentration (MIC) in [2] was 6.25 µM (≈ 2.27 µg/mL).
Turning to `Cc1[nH]c2ccccc2c(=O)c1-c1cnn(Cc2ccc(OC(F)(F)F)cc2)c1`, the minimum inhibitory concentration (MIC) in test [1] and in [2] was over 400 µM each time.
On to `Cc1ccccc1Cc1c(C)n(O)c2ccccc2c1=O`, for which the minimum inhibitory concentration (MIC) was over 400 µM in test [1] and 25 µM (≈ 6.98 µg/mL) in test [2].
Turning to `Cc1c(Cc2ccc(N3CCN(C)CC3)cc2)c(=O)c2ccccc2n1O`, the minimal inhibitory concentration (MIC) in test [1] and in test [2] was over 400 µM each time.
Turning to `CCc1nc2ccc(Cl)cn2c1C(=O)NCc1ccc(N2CCC(c3ccc(OC(F)(F)F)cc3)CC2)cc1`, the inhibition entry in test [6] is “inactive”. Further, the inhibition result in test [7] is “Active”.
In the case of `Cc1c(Cc2ccccc2)c(=O)c2ccccc2n1O`, the results for the MIC in [1] and in [2] were over 400 µM and 50 µM (≈ 13.3 µg/mL), respectively.
Taken in the same sequence, the figures for `Cc1c(Cc2ccc(Cl)cc2)c(=O)c2ccccc2n1O` were over 400 µM and 6.25 µM (≈ 1.87 µg/mL).
`Cc1c(Cc2ccc(OC(F)(F)F)cc2)c(=O)c2ccccc2n1O`: the Kd in [3] came to 4.17 µM. Moreover, the values for the minimal inhibitory concentration (MIC) in test [1], in test [4] and in test [2] were over 400 µM, 6.25 µM (≈ 2.18 µg/mL) and 6.25 µM (≈ 2.18 µg/mL), respectively. In addition, the inhibition in [8] came to 74%; in test [9], 86%. The inhibition result in test [10] and in test [5] was “inactive” each time. In test [11], the inhibition entry was “Active”.
`CC(C)(C)c1cc(C(C)(C)C)c(NC(=O)c2c[nH]c3ccccc3c2=O)cc1O` [IVACAFTOR]: the Kd in test [3] was 40 µM. The MIC in [2] was determined as 51 µM (≈ 20 µg/mL).
With `CN(C(=O)c1c(O)c2ccccc2n(C)c1=O)c1ccccc1` [ROQUINIMEX], in [3], the Kd worked out at 13 µM. Also, the minimum inhibitory concentration (MIC) in [2] was determined as 260 µM (≈ 80.2 µg/mL).
As for `Cc1[nH]c2ccccc2c(=O)c1Cc1ccc(OC(F)(F)F)cc1`, the values for the minimum inhibitory concentration (MIC) in [1] and in test [2] were over 400 µM and 50 µM (≈ 16.7 µg/mL), respectively.
For the molecule `Cc1c(Cc2ccccc2Br)c(=O)c2ccccc2n1O`, the MIC in [1] was over 400 µM; in test [2] it was 50 µM (≈ 17.2 µg/mL).
With `CCc1ccccc1Cc1c(C)n(O)c2ccccc2c1=O`, the MIC in test [1] is over 400 µM; in test [2], 50 µM (≈ 14.7 µg/mL).
Consider `Cc1c(-c2cnn(Cc3ccc(OC(F)(F)F)cc3)c2)c(=O)c2ccccc2n1O`, for which the MIC in test [1] and in test [2] was over 400 µM each time.
Consider `Cc1c(Cc2ccccc2Cl)c(=O)c2ccccc2n1O`, for which the results for the MIC in [1] and in test [2] were over 400 µM and 50 µM (≈ 15 µg/mL), respectively.
Consider `Cc1c(Cc2ccc(I)cc2)c(=O)c2ccccc2n1O`, for which the MIC was over 400 µM in [1] and 12.5 µM (≈ 4.89 µg/mL) in test [2].
Take `COc1ccccc1Cc1c(C)n(O)c2ccccc2c1=O`: the MIC is over 400 µM in test [1] and 25 µM (≈ 7.38 µg/mL) in test [2].

As usually defined, the MIC is the lowest concentration found to suppress growth. Usually Kd stands for the constant that tells how readily two partners part at equilibrium. One may read the inhibition as the drop in the measured response relative to a control, in per cent.
